One data set concerns HSV-1. The experiment in a line: Antiviral activity, HSV-1 in Vero cells, plaque method. It counts as cell-based. The note with it: Human alphaherpesvirus 1, 20 hours, 90% inhibition of plaque formation. As for the experimental part:
An Assay Method for Antiviral Activity These complementary assay methods examine the capacity of a compound to inhibit the generation of new viruses and to inhibit the toxicity of the compound against the host cell. Toxicity indirectly decreases the generation of viruses. Thus, it is important to simultaneously conduct both assays in order to directly compare the results. The Vero cells were sown on a 96-well plate and then cultured overnight. The culture supernatant was removed, and 100 μl of 2% FBS-DMEM containing 50,000 plaque-forming units (hereinafter abbreviated as “pfu”) of HSV-1 was added. A viral solution was removed and 200 μl of 2% FBS-DMEM comprising a test compound was added. In this case, a substance to which 2% FBS-DMEM not comprising any test compound had been added was determined as a control. These infected cells were incubated in the presence of 5% CO2 at 37° C. for 20 hours, and the medium was once allowed to freeze at −80° C. The culture solution was dissolved, and the amount of viruses in the culture solution was assayed by the plaque method. The concentration of the test compound when it inhibited 90% of plaque formation relative to the control was determined to be EC 90.

A further data set has as its system Vero cells. The experiment in a line: Cytotoxicity, Vero cells, Alamar Blue. In kind it is cell-based. The note with it: 25 μM, 20 hours. The procedure:
An Assay Method for Cytotoxicity
The Vero cells were sown on a 96-well plate and then cultured overnight. The culture supernatant was removed, and 200 μl of 2% FBS-DMEM comprising 25 μM of the test compound was added. In this case, a substance to which 2% FBS-DMEM not comprising any test compound had been added was determined as a control. These cells were incubated in the presence of 5% CO2 at 37° C. for 20 hours. Alamar Blue (20 μl) was added to the cells, and cells were incubated for about 6 hours until the color of the control changed. The ratio of the absorbance was assayed using a microplate reader for absorption, and the value relative to the control was determined to be the ratio of living cells.

In a further data set the target is T1, HSV-1 protease (Human herpesvirus 1, UniProt P10210).
T1 construct: 6xHis (N); made in house; host or cells: baculovirus expression system
T1 sequence (P10210 1-247): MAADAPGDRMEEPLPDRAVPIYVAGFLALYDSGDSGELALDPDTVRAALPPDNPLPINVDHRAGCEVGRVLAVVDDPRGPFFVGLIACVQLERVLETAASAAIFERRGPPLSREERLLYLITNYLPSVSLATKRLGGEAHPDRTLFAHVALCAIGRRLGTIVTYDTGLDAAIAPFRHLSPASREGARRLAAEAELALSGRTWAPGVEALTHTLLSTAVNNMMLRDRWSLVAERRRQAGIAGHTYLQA
The experiment in a line: Enzymatic assay for HSV-1 protease (assembly) inhibitor, fluorescence polarization. The following applies: read-out: HSV-1 Enzyme inhibition IC50. It counts as biochemical. As for the experimental part: An enzymatic assay method for an HSV-1 protease (assembly) inhibitor
The activity of an assembly protease was determined by fluorescence polarization. Biotin-gamma-amino butyrate-[…]-DTAF was used as a fluorescent substrate in accordance with an HSV-1 release and cleavage site. […] Changes in the sizes of fluorescent substrate molecules that increased with the use of avidin as a reaction terminator were assayed by fluorescence polarization.
The test compound was dissolved in DMF, and the resultant was diluted 5-fold with an assay buffer. 6.5 μl thereof was added to wells of a 96-well plate (a U-bottomed 96-well plate, Coster) that had previously been blocked with a blocking solution (10 mM Tris-HCl (pH 8.0), 150 mM sodium chloride, 0.05% Tween 20, 1 mg/ml of BSA). The enzyme was diluted to 21.3 μg/ml with an assay buffer (1M sodium citrate, 50 mM sodium phosphate (pH 7.4), 100 mM sodium chloride, 20% glycerol, 2 mM TCEP), and 48.5 μl of the resultant was added to each well. The plate was incubated at room temperature for 30 minutes, and 10 μl of 62.5 μg/ml substrate solution was then added to each well. The plate was incubated at room temperature for 60 minutes, and 50 μl of 2 mg/ml avidin phosphate buffer solution (50 mM sodium phosphate, 100 mM sodium chloride (pH 7.4)) was added to each well. The activity was determined in comparison with a compound without protease inhibitor using a microplate reader for fluorescence polarization.
HSV-1 protease was purified from a vaculovirus that had expressed a DNA construct encoding the reading frame for HSV-1UL26. This construct had further encoded 6 histidine residues at the amino terminus of the protease. These additional histidine residues impart affinity ligands purified by nickel-nitriloacetic acid-agarose (Qiagen). The purified protease was stored as a stock solution for a 20 mM HEPES buffer (pH 8.5, containing 20% v/v glycerin). This stock solution was diluted with an assay buffer and then used in the enzyme reaction.
In accordance with the cleavage specificity of the HSV-1 protease at the “release site” of the assembled protein, a specific substrate was synthesized (Diianni et al., J. Biol. Chem. 268, 2048 (1993)). This assembly protein-release site had the sequence • HTYLQA*SEKFKMW • , and the substrate used was biotin-gamma-amino butyrate-HTYLQA*SERFRIK-DTAF. This is a standard method for peptide synthesis, for example, as in the a method described in “The Practice of Peptide Synthesis” (Bodansky and Bodansky (1984)). The product was stored as a 2.5 mg/ml stock solution in DMF. The resultant was diluted to 62.5 μg/ml with a phosphate buffer (50 mM sodium phosphate, 100 mM sodium chloride, (pH 7.4)) immediately before its use.
An assay buffer (1M sodium citrate, 50 mM sodium phosphate (pH 7.4), 100 mM sodium chloride, 20% glycerol, 2 mM TCEP) was used to dilute a stock solution for the enzyme and that for the inhibitor.
Background: Polarisation of emitted light reports the rotation of a fluorescent probe.

Structures are written as SMILES. A value given as a limit tells only on which side of the number the result lay.

What is called EC90 is the point of the concentration-response curve where the effect stands at 90%. Broadly, the IC50 is the concentration that gives 50% inhibition. `Cc1c(NC(=O)OC(C)(C)C)ccc2nc(N3C[C@H](OCc4ccccc4)C[C@H]3C(=O)NCCc3ccccn3)oc(=O)c12` [Compound No.112, {2-[4R-Benzyloxy-2S-(2-pyridin-2-ylethylcarbamoyl)-pyrrolidin-1-yl]-5-methyl-4-oxo-4H-benzo[d][1,3]oxazin-6-yl}-carbamic acid tert-butyl ester] came in with an EC90 with HSV-1 of 10.7 µM. The “Cell viability (% of control)” value in the data set with Vero cells amounted to 84.2%. Besides, the IC50 at HSV-1 protease was determined as 2.7 µM.
Take `Cc1c(NC(=O)OC(C)(C)C)ccc2nc(N[C@@H](Cc3ccccc3)C(=O)N(C)CCc3cccnc3)oc(=O)c12` [Compound No.64, (5-Methyl-2-{1S-[methyl-(2-pyridin-3-yl-ethyl)-carbamoyl]-2-phenyl-ethylamino}-4-oxo-4H-benzo[d][1,3]oxazin-6-yl)-carbamic acid tert-butyl ester]: the EC90 in the data set with HSV-1 was determined as 5.1 µM. The “Cell viability (% of control)” value in the data set on Vero cells was 70.1%. Also, the IC50 at HSV-1 protease was 0.8 µM.
The matching figures for `Cc1c(NC(=O)c2ccccc2OC(F)(F)F)ccc2nc(NC(C)(C)C(=O)N(C)CCc3ccccn3)oc(=O)c12` [Compound No.182, N-(5-Methyl-2-{1-methyl-1-[methyl-(2-pyridin-2-yl-ethyl)-carbamoyl]-ethylamino}-4-oxo-4H-benzo[d][1,3]oxazin-6-yl)-2-trifluoromethoxy-benzamide]: over 12.5 µM, 95.2% and 4.9 µM.
Take `Cc1c(NC(=O)c2ccc(CCl)cc2)ccc2nc(NC(C)(C)C(=O)N(C)CCc3ccccn3)oc(=O)c12` [Compound No.171, 4-Chloromethyl-N-(5-methyl-2-{1-methyl-1-[methyl-(2-pyridin-2-yl-ethyl)-carbamoyl]-ethylamino}-4-oxo-4H-benzo[d][1,3]oxazin-6-yl)-benzamide]: in the data set with HSV-1, the EC90 was 10.2 µM. Further, in the data set on Vero cells, the “Cell viability (% of control)” value is listed as 16.1%. Further, the IC50 on HSV-1 protease stood at 2.1 µM.
On to `Cc1c(NC(=O)OC(C)(C)C)ccc2nc(NC(C)(C)C(=O)N(C)CCc3ccncc3)oc(=O)c12` [Compound No.51, (5-Methyl-2-{1-methyl-1-[methyl-(2-pyridin-4-yl-ethyl)-carbamoyl]-ethylamino}-4-oxo-4H-benzo[d][1,3]oxazin-6-yl)-carbamic acid tert-butyl ester], for which the 90% effect level with HSV-1 (EC90) was put at 9.3 µM. The “Cell viability (% of control)” value in the data set with Vero cells is given as 106.0%. For the same compound, the half-inhibitory concentration (IC50) on HSV-1 protease came out at 0.6 µM.
`Cc1cccc(C(=O)Nc2ccc3nc(NC(C)(C)C(=O)N(C)CCc4ccccn4)oc(=O)c3c2C)c1` [compound 157, 3-Methyl-N-(5-methyl-2-{1-methyl-1-[methyl-(2-pyridin-2-yl-ethyl)-carbamoyl]-ethylamino}-4-oxo-4H-benzo[d][1,3]oxazin-6-yl)-benzamide] had an EC90 in the data set on HSV-1 of 6.2 µM. In addition, in the data set with Vero cells, the “Cell viability (% of control)” value was 70.5%. The 50% inhibitory concentration (IC50) on HSV-1 protease came to 3.3 µM.
`Cc1c(NC(=O)CCNC(=O)OCc2ccccc2)ccc2nc(NC(C)(C)C(=O)N(C)CCc3ccccn3)oc(=O)c12` [Compound No.202, [2-(5-Methyl-2-{1-methyl-1-[methyl-(2-pyridin-2-yl-ethyl)-carbamoyl]-ethylamino}-4-oxo-4H-benzo [d][1,3]oxazin-6-ylcarbamoyl)-ethyl]-carbamic acid benzyl ester] showed an EC90 with HSV-1 of over 12.5 µM. The IC50 at HSV-1 protease was 0.5 µM.
On the same counts, the results for `Cc1c(NC(=O)CCNC(=O)OCc2ccccc2)ccc2nc(N[C@@H](C)C(=O)N(C)CCc3ccccn3)oc(=O)c12` [Compound No.206, [2-(5-Methyl-2-{1S-[methyl-(2-pyridin-2-yl-ethyl)-carbamoyl]-ethylamino}-4-oxo-4H-benzo[d][1,3]oxazin-6-ylcarbamoyl)-ethyl]-carbamic acid benzyl ester] are over 12.5 µM and 1.1 µM.
For the compound `CCCCc1ccc(C(=O)NCCC(=O)Nc2ccc3nc(N[C@@H](C)C(=O)N(C)CCc4ccccn4)oc(=O)c3c2C)cc1` [Compound No.217, 4-Butyl-N-[2-(5-methyl-2-{1S-[methyl-(2-pyridin-2-yl-ethyl)-carbamoyl]-ethylamino}-4-oxo-4H-benzo[d][1,3]oxazin-6-ylcarbamoyl)-ethyl]-benzamide], the EC90 with HSV-1 is over 12.5 µM. The IC50 on HSV-1 protease came to 4.7 µM.
The compound `Cc1c(NC(=O)CCCNC(=O)c2ccc(C(F)(F)F)cc2)ccc2nc(N[C@@H](C)C(=O)N(C)CCc3ccccn3)oc(=O)c12` [Compound No.219, N-[3-(5-Methyl-2-{1S-[methyl-(2-pyridin-2-yl-ethyl)-carbamoyl]-ethylamino}-4-oxo-4H-benzo[d][1,3]oxazin-6-ylcarbamoyl)-propyl]-4-trifluoromethyl-benzamide] yielded an EC90 in the data set with HSV-1 of over 12.5 µM. On HSV-1 protease, the IC50 is 0.9 µM.
In the data set with HSV-1, `CCCCc1ccc(C(=O)NCCCC(=O)Nc2ccc3nc(N[C@@H](C)C(=O)N(C)CCc4ccccn4)oc(=O)c3c2C)cc1` [Compound No.220, 4-Butyl-N-[3-(5-methyl-2-{1S-[methyl-(2-pyridin-2-yl-ethyl)-carbamoyl]-ethylamino}-4-oxo-4H-benzo [d][1,3]oxazin-6-ylcarbamoyl)-propyl]-benzamide] returned an EC90 of over 12.5 µM. Besides, the IC50 on HSV-1 protease worked out at 0.5 µM.
On the same counts, the results for `Cc1c(NC(=O)OC(C)(C)C)ccc2nc(NC3(C(=O)N(C)CCc4ccccn4)CC3)oc(=O)c12` [Compound No.122, (5-Methyl-2-{1-[methyl-(2-pyridin-2-yl-ethyl)-carbamoyl]-cyclopropylamino}-4-oxo-4H-benzo[d][1,3]oxazin-6-yl)-carbamic acid tert-butyl ester] are over 12.5 µM and 1.6 µM.
Consider `Cc1c(NC(=O)OC(C)(C)C)ccc2nc(NCC(=O)N(C)CCc3ccccn3)oc(=O)c12` [Compound No.130, [5-methyl-2-({[methyl-(2-pyridin-2-yl-ethyl)-carbamoyl]-methyl}-amino)-4-oxo-4H-benzo[d][1,3]oxazin-6-yl]-carbamic Acid Tert-Butyl Ester], for which the EC90 in the data set with HSV-1 was over 20 µM. At HSV-1 protease, the IC50 is 0.4 µM.
`Cc1c(NC(=O)CCNC(=O)OC(C)(C)C)ccc2nc(N[C@H](C)C(=O)N(C)CCc3ccccn3)oc(=O)c12` [Compound No.227, [2-(5-Methyl-2-{1R-[methyl-(2-pyridin-2-yl-ethyl)-carbamoyl]-ethylamino}-4-oxo-4H-benzo[d][1,3]oxazin-6-ylcarbamoyl)-ethyl]-carbamic acid tert-butyl ester] showed an EC90 with HSV-1 of over 20 µM. Further, the IC50 at HSV-1 protease was 2.4 µM.
`Cc1c(NC(=O)OC(C)(C)C)ccc2nc(NC3(C(=O)N(C)CCc4ccccn4)CCCCC3)oc(=O)c12` [Compound No.124, (5-Methyl-2-{1-[methyl-(2-pyridin-2-yl-ethyl)-carbamoyl]-cyclohexylamino}-4-oxo-4H-benzo[d][1,3]oxazin-6-yl)-carbamic acid tert-butyl ester]: the EC90 with HSV-1 came to 6.1 µM. In addition, the IC50 at HSV-1 protease stood at 1 µM.

Values taken from patent US20040116420A1 (priority 2001, published 2004).
